Source: patent US20090202987A1, “Canis sphingosine 1-phosphate receptor isoform 2” (priority 2004, published 2009)

Experiments:
cS1P2 receptor [1] = target: T1, cS1P2 receptor (Canis lupus familiaris, UniProt A0A8I3P3I1); assay: 35S-GTPγS binding assay with membranes from transfected CHO cells; assay type: biochemical, Canis (dog); conditions: membranes of cS1P2-transfected CHO cells, 5 μM GDP, 100 pM 35S-GTPγS, one hour at room temperature; read-out: EC50 (35S-GTPγS binding, FIG. 4)
Procedure: Functional coupling of the cS1P2 receptor to G proteins was measured in a ^35S-GTPγS binding assay. Membranes were prepared from transfected cells by homogenization in ice cold 20 mM HEPES pH 7.4, 10 mM EDTA using a Kinematica polytron (setting 5, for 10 seconds). Homogenates were centrifuged at 48,000×g for 15 minutes at 4° C. and the pellet suspended in 20 mM HEPES pH 7.4, 0.11 mM EDTA. Following a second centrifugation, the final pellet was suspended in 20 mM HEPES pH 7.4, 100 mM NaCl, 10 mM MgCl2. Membranes were incubated in 200 μL with 5 μM GDP, various concentrations of SIP (sonicated in 1% BSA), and 100 pM ^35S-GTPγS (NEN; specific activity 1250 Ci/mmol) in 96 well microtiter dishes. Binding was performed for one hour at room temperature, and terminated by harvesting the membranes onto GF/B filter plates with a Packard Filtermate Universal Harvester. After drying the filter plates for 30 min, 40 μL of MICROSCINT 20 was added to each well and binding was measured on a Packard Top Count scintillation counter.

cS1P2 receptor [2] = target: T1, cS1P2 receptor; assay: S1P ligand binding assay with transfected CHO cells expressing the cS1P2 receptor; parameters: species or system Canis (dog); conditions: 33P-S1P binding to CHO cells expressing cS1P2, 60 minutes at room temperature; read-out: EC50 (S1P ligand binding, FIG. 3)
Procedure: The transfected CHO cells from Example 2 expressing the cS1P2 receptor were evaluated for the ability of the cS1P2 receptor expressed in the cells to properly integrate into the cell membrane and bind SIP.
Transfected CHO cells from Example 2 were harvested with enzyme-free dissociation solution (Specialty Media, Lavallette, N.J.). The cells were washed once in cold PBS and suspended in SIP binding buffer (50 mM HEPES-Na, pH 7.5, 5 mM MgCl2, 1 mM CaCl2, 0.5% FAF-BSA). ^33P-S1P was synthesized enzymatically from γ^33P-ATP and sphingosine using a crude extract with sphingosine kinase activity in a reaction mix containing 50 mM KH2PO4, 1 mM mercaptoethanol, 1 mM Na3VO4, 25 mM KF, 2 mM semicarbazide, 1 mM Na2EDTA, 5 mM MgCl2, […], 0.1% TritonX-114, and 1 mCi γ^33P-ATP (NEN; specific activity 2000 Ci/mnol). Reaction products were extracted with butanol and ^33P-S1p was purified by HPLC.
^33P-S1P (0.1 uCi/ml) was sonicated with 0.2 nM S1P dissolved in binding buffer; 100 μL of the mixture was added to 100 μL cells (1×10^5). Binding was performed for 60 minutes at room temperature. […] After drying the filter plates for 30 minutes, 50 μL of MICROSCINT 20 was added to each well and binding was measured with a Packard Top Count. Non-specific binding was defined as the amount of radioactivity remaining in the presence of 200 nM cold S1P.

CCCCCCCCCCCCC/C=C/[C@@H](O)[C@@H](N)COP(=O)(O)O [S1P, sphingosine-1-phosphate]
EC50 (cS1P2 receptor [1]): ~0.8 nM | EC50 (cS1P2 receptor [2]): ~5.7 nM
